In patent US7241791B2, “Substituted 4-(indazol-3-yl)phenols” (Wyeth, priority 2002, dated 2007):
Several values for one entry are separate records, joined by “and”; a condition that tells them apart may be missing. Identical values can stand only once.

Key:
[1] = target: T1, human ERα (Homo sapiens, UniProt P03372); experiment: Creatine kinase expression (ER/CK) in Ad5-wt-hERα infected HAECT-1 cells; settings: for ER/CK % E2: efficacy relative to the maximal stimulation observed with E2
T1 sequence (P03372 1-595): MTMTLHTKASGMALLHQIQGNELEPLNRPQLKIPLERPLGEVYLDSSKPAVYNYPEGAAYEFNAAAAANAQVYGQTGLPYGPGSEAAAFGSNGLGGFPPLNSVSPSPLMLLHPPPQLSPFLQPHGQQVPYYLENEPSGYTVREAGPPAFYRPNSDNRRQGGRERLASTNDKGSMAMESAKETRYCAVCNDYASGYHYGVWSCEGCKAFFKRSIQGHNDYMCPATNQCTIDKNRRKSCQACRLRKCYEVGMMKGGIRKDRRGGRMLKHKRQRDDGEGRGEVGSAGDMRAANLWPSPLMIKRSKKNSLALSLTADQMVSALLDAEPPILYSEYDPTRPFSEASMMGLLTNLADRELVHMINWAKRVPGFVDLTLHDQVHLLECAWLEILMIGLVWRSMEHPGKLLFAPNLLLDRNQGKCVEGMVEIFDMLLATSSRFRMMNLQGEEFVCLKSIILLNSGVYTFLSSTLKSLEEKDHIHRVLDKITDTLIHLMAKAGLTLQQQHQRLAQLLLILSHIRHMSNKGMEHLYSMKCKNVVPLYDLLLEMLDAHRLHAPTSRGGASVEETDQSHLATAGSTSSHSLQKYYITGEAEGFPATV

[2] = target: T1, human ERα; experiment: NF-κB luciferase reporter (ER/NF-KB-luc) in Ad5-wt-hERα infected HAECT-1 cells; settings: for Emax: HAECT1, read-out: ER/NF-KB-luc % E2, efficacy relative to the maximal inhibition observed with E2; for IC50: ER/NF-KB-luc IC50, Ad5-wt-ER infected HAECT-1 cells, IL-1β

SMILES	EC50 [1] [nM]	ER/CK % E2 [1] [% E2]	Emax [2] [%]	IC50 [2]	ER/NF-KB-luc % E2 ([2]; efficacy relative to the maximal inhibition observed with E2) [% E2]
Cc1cccc2c(-c3ccc(O)cc3)nn(C(C)C)c12 [Example 39, 4-(1-isopropyl-7-methyl-1H-indazol-3-yl)phenol]	57	46	89	9 nM	–
CCCCCn1nc(-c2ccc(O)cc2)c2cccc(Cl)c21 [Example 41, 4-(7-chloro-1-pentyl-1H-indazol-3-yl)phenol]	415	39	85	95 nM	–
CC(C)n1nc(-c2ccc(O)cc2)c2cccc(Cl)c21 [Example 45, 4-(7-chloro-1-isopropyl-1H-indazol-3-yl)pheno]	121	43	86	31 nM	–
CCCCCn1nc(-c2ccc(O)cc2)c2cccc(C(F)(F)F)c21 [Example 47, 4-[1-pentyl-7-(trifluoromethyl)-1H-indazol-3-yl]phenol]	13	26	94	97 nM	–
CCCn1nc(-c2ccc(O)cc2)c2cccc(C(F)(F)F)c21 [Example 48, 4-[1-propyl-7-(trifluoromethyl)-1H-indazol-3-yl]phenol]	79	49	107	42 nM	–
CC(C)n1nc(-c2ccc(O)cc2O)c2cccc(C(F)(F)F)c21 [Example 65, 4-[1-isopropyl-7-(trifluoromethyl)-1H-indazol-3-yl]benzene-1,3-diol]	218	42	86	41 nM	–
CCC(CC)Cn1nc(-c2ccc(O)cc2O)c2cccc(C(F)(F)F)c21 [Example 69, 4-[1-(2-ethylbutyl)-7-(trifluoromethyl)-1H-indazol-3-yl]benzene-1,3-diol]	704	32	68	235 nM	–
C=CCn1nc2c(C(F)(F)F)cccc2c1-c1ccc(O)cc1C [Example 72, 4-[2-allyl-7-(trifluoromethyl)-2H-indazol-3-yl]-3-methylphenol]	140	46	85	7 nM	–
CCCCCn1nc(-c2ccc(O)cc2O)c2cccc(C(F)(F)F)c21 [Example 73, 4-[1-pentyl-7-(trifluoromethyl)-1H-indazol-3-yl]benzen-1,3-diol]	103	19	76	94 nM	–
C=CCn1nc2c(C(F)(F)F)cccc2c1-c1ccc(O)cc1O [Example 75, 4-[2-allyl-7-(trifluoromethyl)-2H-indazol-3-yl]-1,3-benzenediol]	982	48	83	63 nM	–
CCCn1nc(-c2ccc(O)cc2C)c2cccc(C(F)(F)F)c21 [Example 76, 3-methyl-4-[1-propyl-7-(trifluoromethyl)-1H-indazol-3-yl]phenol]	57	20	86	22 nM	–
Cc1cc(O)ccc1-c1nn(C(C)C)c2c(Cl)cccc12 [Example 77, 4-(7-chloro-1-isopropyl-1H-indazol-3-yl)-3-methylphenol]	302	29	87	41 nM	–
C=CCn1nc2c(Cl)cccc2c1-c1ccc(O)cc1C [Example 78, 4-(2-allyl-7-chloro-2H-indazol-3-yl)-3-methylphenol]	2200	32	90	590 nM	–
CCCn1nc2c(Cl)cccc2c1-c1ccc(O)cc1C [Example 79, 4-(7-chloro-2-propyl-2H-indazol-3-yl)-3-methylphenol]	734	52	93	92 nM	–
Cc1cc(O)ccc1-c1c2cccc(Cl)c2nn1C(C)C [Example 81, 4-(7-chloro-2-isopropyl-2H-indazol-3-yl)-3-methylphenol]	308	62	92	33 nM	–
CCCn1nc(-c2ccc(O)cc2C)c2cccc(Cl)c21 [Example 86, 4-(7-chloro-1-propyl-1H-indazole-3-yl)-3-methylphenol]	413	27	83	255 nM	–
CC(C)n1nc(-c2ccc(O)cc2O)c2cccc(F)c21 [Example 87, 4-(7-fluoro-1-isopropyl-1H-indazole-3-yl)benzene-1,3-diol]	188	24	77	347 nM	–
Cc1cc(O)ccc1-c1nn(C(C)C)c2c(F)cccc12 [Example 91, 4-(7-fluoro-1-isopropyl-1H-indazole-3-yl)-3-methylphenol]	787	24	82	80 nM	–
CCCn1nc2c(-c3ccccc3)cccc2c1-c1ccc(O)cc1 [Example 110, 4-(7-phenyl-2-propyl-2H-indazol-3-yl)phenol]	12	82	89	2 nM	–

Next, values leading:

EC50 [1] [nM]	ER/CK % E2 [1] [% E2]	Emax [2] [%]	IC50 [2]	ER/NF-KB-luc % E2 ([2]; efficacy relative to the maximal inhibition observed with E2) [% E2]	SMILES
25	70	89	–	–	CCCn1nc2c(C)cccc2c1-c1ccc(O)cc1 [Example 38, 4-[7-methyl-2-propyl-2H-indazol-3-yl]phenol]
22	79	108	–	–	Cc1cccc2c(-c3ccc(O)cc3)n(C(C)C)nc12 [Example 40, 4-[2-isopropyl-7-methyl-2H-indazol-3-yl]phenol]
309	48	90	43 nM	–	CCCn1nc2c(Cl)cccc2c1-c1ccc(O)cc1 [Example 44, 4-[7-chloro-2-propyl-2H-indazol-3-yl]phenol]
–	67	102	–	–	CC(C)n1nc2c(Cl)cccc2c1-c1ccc(O)cc1 [Example 46, 4-(7-chloro-2-isopropyl-2H-indazol-3-yl)phenol]
327	43	84	106 nM	–	C=CCn1nc(-c2ccc(O)cc2)c2cccc(F)c21 [Example 50, 4-(1-allyl-7-fluoro-1H-indazol-3-yl)phenol]
111	27	76	17 nM	–	Oc1ccc(-c2c3cccc(Cl)c3nn2C2CCCC2)cc1 [Example 52, 4-(7-chloro-2-cyclopentyl-2H-indazol-3-yl)phenol]
184	31	84	58 nM	–	CCCn1nc(-c2ccc(O)cc2)c2cccc(F)c21 [Example 53, 4-(7-fluoro-1-propyl-1H-indazol-3-yl)phenol]
401	49	90	26 nM	–	CC(C)n1nc(-c2ccc(O)cc2)c2cccc(F)c21 [Example 55, 4-(7-fluoro-1-isopropyl-1H-indazol-3-yl)phenol]
477	47	96	14 nM	–	CC(C)n1nc2c(F)cccc2c1-c1ccc(O)cc1 [Example 56, 4-(7-fluoro-2-isopropyl-2H-indazol-3-yl)phenol]
205	45	89	45 nM	–	C=CCn1nc(-c2ccc(O)cc2)c2cccc(C)c21 [Example 57, 4-(1-allyl-7-methyl-1H-indazol-3-yl)phenol]
97	38	100	20 nM	–	C=CCn1nc(-c2ccc(O)cc2)c2cccc(C(F)(F)F)c21 [Example 58, 4-[1-allyl-7-(trifluoromethyl)-1H-indazol-3-yl]phenol]
133	36	90	5 nM	–	C=CCn1nc2c(C(F)(F)F)cccc2c1-c1ccc(O)cc1 [Example 59, 4-[2-allyl-7-(trifluoromethyl)-2H-indazol-3-yl]phenol]
76	33	62	50 nM	–	Oc1ccc(-c2c3cccc(F)c3nn2C2CCCC2)cc1 [Example 61, 4-(2-cyclopentyl-7-fluoro-2H-indazol-3-yl)phenol]
17	32	56	29 nM	–	Oc1ccc(-c2nn(C3CCCC3)c3c(C(F)(F)F)cccc23)c(O)c1 [Example 66, 4-[1-cyclopentyl-7-(trifluoromethyl)-1H-indazol-3-yl] benzene-1,3-diol]
166	91	82	27 nM and 246 nM	71	CCC(=O)Oc1ccc(-c2nn(C3CCCC3)c3c(F)cccc23)cc1 [Example 115, 4-(1-cyclopentyl-7-fluoro-1H-indazol-3-yl)phenyl propionate]
